Drawing on ChEMBL document CHEMBL1149604, “Disaccharide analogs as probes for glycosyltransferases in Mycobacterium tuberculosis” (Bioorg Med Chem, 2007), this text covers Km for six compounds.

The first assay has as its system Mycolicibacterium smegmatis. The assay is described as follows: Activity of Mycobacterial smegmatis-arabinosyltransferase after 1 hr.
One may read the Km as the concentration of substrate that gives half-maximal velocity. Consider `[N-]=[N+]=Nc1cccc2c(S(=O)(=O)NCCO[C@H]3O[C@H](CO[C@H]4O[C@H](CO)[C@@H](O)[C@@H]4O)[C@@H](O)[C@@H]3O)cccc12`, for which the Km is 3070 µM.

Take `CN(C)c1cccc2c(S(=O)(=O)NCCO[C@H]3O[C@H](CO[C@H]4O[C@H](CO)[C@@H](O)[C@@H]4O)[C@@H](O)[C@@H]3O)cccc12`: the Km was determined as 680 µM.

The next assay deals with Mycolicibacterium smegmatis. The assay is described as follows: Activity of Mycobacterial smegmatis-galactosyltransferase after 1 hr.
For the compound `CN(C)c1cccc2c(S(=O)(=O)NCCO[C@@H]3O[C@@H](C[C@H](CO)O[C@@H]4O[C@@H]([C@@H](O)CO)[C@H](O)[C@H]4O)[C@H](O)[C@H]3O)cccc12`, the Km came out at 7330 µM.

On to `[N-]=[N+]=Nc1cccc2c(S(=O)(=O)NCCO[C@@H]3O[C@@H]([C@@H](O)CO[C@@H]4O[C@@H]([C@@H](O)CO)[C@H](O)[C@H]4O)[C@H](O)[C@H]3O)cccc12`, for which the Km amounted to 1980 µM.

For the compound `CN(C)c1cccc2c(S(=O)(=O)NCCO[C@@H]3O[C@@H]([C@@H](O)CO[C@@H]4O[C@@H]([C@@H](O)CO)[C@H](O)[C@H]4O)[C@H](O)[C@H]3O)cccc12`, the Km turned out to be 2380 µM.

Take `[N-]=[N+]=Nc1cccc2c(S(=O)(=O)NCCO[C@@H]3O[C@@H](C[C@H](CO)OC4O[C@@H]([C@@H](O)CO)[C@H](O)[C@H]4O)[C@H](O)[C@H]3O)cccc12` (stereo partly specified): the Km turned out to be 2770 µM.
